Results published in patent US20240417410A1, “TRICYCLIC COMPOUNDS FOR THE TREATMENT OF CANCER” (Hoffmann-La Roche Inc., priority 2023, published 2024).
pIC50: −log10 of the molar value.

Key:
AGS cells (KRAS G12D) = assay: Cell viability assay (Cell Counting Kit-8, 3-day); format: cell-based, human; details: Homo sapiens, 72 h, 72 hrs incubation
In short: (§1)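 After overnight attachment, cells received compounds (0.5% DMSO) for 72 hrs; viability was then quantified with CCK-8, reading OD450 minus OD650, and IC50 values were obtained from a 4-parameter concentration-response fit.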

[1] = test system: NCI-H358 cells (KRAS G12C); assay: Cell viability assay (Cell Counting Kit-8, 3-day); format: cell-based, human; details: Homo sapiens, NCI-H358, 72 h, NCI-H358, 72 hrs incubation
In short: as §1

SW620 cells (KRAS G12V) = assay: Cell viability assay (Cell Counting Kit-8, 3-day); format: cell-based, human; details: Homo sapiens, SW-620; SW620, 72 hrs incubation
In short: as §1

KRAS G12C-BRAF complex = KRAS G12C-BRAF complex (Homo sapiens (Human), UniProt P01116+P62937, G12C); assay: KRAS-BRAF with CYPA (500 nM) interaction assay (TR-FRET, Example 136); format: biochemical; details: KRAS G12C-BRAF disruption
Sequence of KRAS G12C-BRAF complex (P01116-2 other isoform, or with tags, fused parts or gaps G12C): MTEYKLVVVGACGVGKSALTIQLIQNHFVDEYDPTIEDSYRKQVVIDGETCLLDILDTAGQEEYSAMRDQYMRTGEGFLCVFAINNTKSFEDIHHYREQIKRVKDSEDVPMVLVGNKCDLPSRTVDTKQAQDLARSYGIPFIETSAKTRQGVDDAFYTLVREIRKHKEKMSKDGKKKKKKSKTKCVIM
Sequence of KRAS G12C-BRAF complex (P62937 whole entry): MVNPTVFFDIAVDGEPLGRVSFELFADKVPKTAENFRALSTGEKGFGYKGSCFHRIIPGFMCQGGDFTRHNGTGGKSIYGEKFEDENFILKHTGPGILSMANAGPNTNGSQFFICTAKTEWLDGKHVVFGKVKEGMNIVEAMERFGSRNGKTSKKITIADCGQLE

[2] = test system: phosphorylation of ERK, KRAS G12C in NCI-H358 cells; assay: pERK inhibition assay; format: cell-based; details: Homo sapiens, NCI-H358, 4 h
In short: (§2)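 Phospho-ERK quantified by in-cell ELISA with TMB read-out at OD450 following 4 h compound exposure (final 0.5% DMSO). Cell lines were SW620 (KRAS G12V), AGS (G12D) and NCI-H358 (G12C), grown in RPMI-1640 with 10% FBS. A 4-parameter sigmoidal model gave the IC50.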

[3] = test system: phosphorylation of ERK, KRAS G12D in AGS cells; assay: pERK inhibition assay; format: cell-based; details: Homo sapiens, AGS, 4 h
In short: as §2

[4] = test system: phosphorylation of ERK, KRAS G12V in SW620; assay: pERK inhibition assay; format: cell-based; details: Homo sapiens, SW-620, 4 h, SW620 cells
In short: as §2

SMILES	pIC50 (AGS cells (KRAS G12D))	pIC50 [1]	pIC50 (SW620 cells (KRAS G12V))	pIC50 (KRAS G12C-BRAF complex)	pIC50 [2]	pIC50 [3]	pIC50 [4]
CO[C@@H](C)c1ncc(N2CCN(C3COC3)CC2)cc1-c1c2c3cc(cc4c3n1CCC4)-c1csc(n1)C[C@H](NC(=O)[C@H]1[C@H](C)[C@@H]1C)C(=O)N1CCC[C@H](N1)C(=O)OCC(C)(C)C2 (atropisomer, axis not shown; (M)) [Example 118, (1r,2R,3S)-N-[(7S,13S)-(20M)-20-[2-[(1S)-1-methoxyethyl]-5-[4-(oxetan-3-yl)piperazin-1-yl]-3-pyridyl]-17,17-dimethyl-8,14-dioxo-15-oxa-4-thia-9,21,30,31-tetrazahexacyclo[23.3.1.1^2,5.1^9,13.0^19,27.0^21,26]hentriaconta-1 (28),2,5 (31), 19,25 (29),26-hexaen-7-yl]-2,3-dimethyl-cyclopropanecarboxamide]	8.89	8.96	9.70	7.87	9.15	8.46	9.52
CO[C@@H](C)c1ncc(N2CCN(C)CC2)cc1-c1c2c3cc(cc4c3n1CCC4)-c1csc(n1)C[C@H](NC(=O)[C@@H]1C[C@H]1c1ncccn1)C(=O)N1CCC[C@H](N1)C(=O)OCC(C)(C)C2 (atropisomer, axis not shown) [Example 81, (1R,2R)-N-[(7S,13S)-20-[2-[(1S)-1-methoxyethyl]-5-(4-methylpiperazin-1-yl)-3-pyridyl]-17,17-dimethyl-8,14-dioxo-15-oxa-4-thia-9,21,30,31-tetrazahexacyclo[23.3.1.1^2,5.1^9,13.0^19,27.0^21,26]hentriaconta-1 (28),2,5 (31),19,25 (29),26-hexaen-7-yl]-2-pyrimidin-2-yl-cyclopropanecarboxamide]	7.63	8.28	9.10	7.52	8.80	8.19	8.92
CO[C@@H](C)c1ncc(N2CCN3CCOC[C@@H]3C2)cc1-c1c2c3cc(cc4c3n1CCC4)-c1csc(n1)C[C@H](NC(=O)[C@H]1C[C@@H]1C(F)F)C(=O)N1CCC[C@H](N1)C(=O)OCC(C)(C)C2 (atropisomer, axis not shown; (M)) [Example 41, (1S,2S)-N-[(7S,13S)-(20M)-20-[5-[(9αS)-3,4,6,7,9,9a-hexahydro-1H-pyrazino[2,1-c][1,4]oxazin-8-yl]-2-[(1S)-1-methoxyethyl]-3-pyridyl]-17,17-dimethyl-8,14-dioxo-15-oxa-4-thia-9,21,30,31-tetrazahexacyclo[23.3.1.1^2,5.1^9,13.0^19,27.0^21,26]hentriaconta-1 (28),2,5 (31),19,25 (29),26-hexaen-7-yl]-2-(difluoromethyl)cyclopropanecarboxamide]	7.85	8.44	9.05	7.62	9.40	8.32	9.40
CO[C@@H](C)c1ncc(N2CCOCC2)cc1-c1c2c3cc(cc4c3n1CC(F)(F)C4)-c1csc(n1)C[C@H](NC(=O)[C@H]1[C@H](C)[C@@H]1C)C(=O)N1CCC[C@H](N1)C(=O)OCC(C)(C)C2 (atropisomer, axis not shown; (M)) [Example 76, (1r,2S,3R)-N-[(7S,13S)-23,23-difluoro-(20M)-20-[2-[(1S)-1-methoxyethyl]-5-morpholino-3-pyridyl]-17,17-dimethyl-8,14-dioxo-15-oxa-4-thia-9,21,30,31-tetrazahexacyclo[23.3.1.1^2,5.1^9,13.0^19,27.0^21,26]hentriaconta-1 (28),2,5 (31), 19,25 (29),26-hexaen-7-yl]-2,3-dimethyl-cyclopropanecarboxamide]	8.31	8.68	9.52	8.04	9.15	8.41	9.70
CO[C@@H](C)c1ncc(N2CCOCC2)cc1-c1c2c3cc(cc4c3n1CC(F)(F)C4)-c1csc(n1)C[C@H](NC(=O)[C@H]1C[C@@H]1c1cccnc1)C(=O)N1CCC[C@H](N1)C(=O)OCC(C)(C)C2 (atropisomer, axis not shown; (M)) [Example 91, (1S,2S)-N-[(7S,13S)-23,23-difluoro-(20M)-20-[2-[(1S)-1-methoxyethyl]-5-morpholino-3-pyridyl]-17,17-dimethyl-8,14-dioxo-15-oxa-4-thia-9,21,30,31-tetrazahexacyclo[23.3.1.1^2,5.1^9,13.0^19,27.0^21,26]hentriaconta-1 (28),2,5 (31),19,25 (29),26-hexaen-7-yl]-2-(3-pyridyl)cyclopropanecarboxamide]	8.01	8.55	9.22	8.09	9.30	8.49	9.22
CO[C@@H](C)c1ncc(N2CCN(C)CC2)cc1-c1c2c3cc(cc4c3n1CCC4)-c1csc(n1)C[C@H](NC(=O)[C@@H]1C[C@H]1c1cccnc1C)C(=O)N1CCC[C@H](N1)C(=O)OCC(C)(C)C2 (atropisomer, axis not shown; (M)) [Example 116, (1R,2R)-N-[(7S,13S)-(20M)-20-[2-[(1S)-1-methoxyethyl]-5-(4-methylpiperazin-1-yl)-3-pyridyl]-17,17-dimethyl-8,14-dioxo-15-oxa-4-thia-9,21,30,31-tetrazahexacyclo[23.3.1.1^2,5.1^9,13.0^19,27.0^21,26]hentriaconta-1 (28),2,5 (31), 19,25 (29),26-hexaen-7-yl]-2-(2-methyl-3-pyridyl)cyclopropanecarboxamide]	8.46	8.85	9.30	7.69	9.10	8.34	9.15
CO[C@@H](C)c1ncc(N2CCN(CC(F)(F)F)CC2)cc1-c1c2c3cc(cc4c3n1CC(F)(F)C4)-c1csc(n1)C[C@H](NC(=O)[C@H]1[C@H](C)[C@@H]1C)C(=O)N1CCC[C@H](N1)C(=O)OCC(C)(C)C2 (atropisomer, axis not shown; (M)) [Example 87, (1r,2S,3R)-N-[(7S,13S)-23,23-difluoro-(20M)-20-[2-[(1S)-1-methoxyethyl]-5-[4-(2,2,2-trifluoroethyl)piperazin-1-yl]-3-pyridyl]-17,17-dimethyl-8,14-dioxo-15-oxa-4-thia-9,21,30,31-tetrazahexacyclo[23.3.1.1^2,5.1^9,13.0^19,27.0^21,26]hentriaconta-1 (28),2,5 (31),19,25 (29),26-hexaen-7-yl]-2,3-dimethyl-cyclopropanecarboxamide]	7.24	7.52	8.40	7.49	8.32	7.39	8.82
CO[C@@H](C)c1ncc(N2CCOCC2)cc1-c1c2c3cc(cc4c3n1CCC4)-c1csc(n1)C[C@H](NC(=O)[C@H]1C[C@@H]1C(F)F)C(=O)N1CCC[C@H](N1)C(=O)OCC(C)(C)C2 (atropisomer, axis not shown; (M)) [Example 6, (1S,2S)-2-(difluoromethyl)-N-[(7S,13S)-(20M)-20-[2-[(1S)-1-methoxyethyl]-5-morpholino-3-pyridyl]-17,17-dimethyl-8,14-dioxo-15-oxa-4-thia-9,21,30,31-tetrazahexacyclo[23.3.1.1^2,5.1^9,13.0^19,27.0^21,26]hentriaconta-1 (28),2,5 (31), 19,25 (29),26-hexaen-7-yl]cyclopropanecarboxamide]	7.71	8.52	8.80	7.95	8.85	8.25	9.10
CO[C@@H](C)c1ncc(N2CCN(CCOC3CCOC3)CC2)cc1-c1c2c3cc(cc4c3n1CCC4)-c1csc(n1)C[C@H](NC(=O)[C@H]1[C@H](C)[C@@H]1C)C(=O)N1CCC[C@H](N1)C(=O)OCC(C)(C)C2 (stereo partly drawn) [Example 122, (1r,2R,3S)-N-[(7S,13S)-(20M)-20-[2-[(1S)-1-methoxyethyl]-5-[4-(2-tetrahydrofuran-3-yloxyethyl)piperazin-1-yl]-3-pyridyl]-17,17-dimethyl-8,14-dioxo-15-oxa-4-thia-9,21,30,31-tetrazahexacyclo[23.3.1.1^2,5.1^9,13.0^19,27.0^21,26]hentriaconta-1 (28),2,5 (31), 19,25 (29),26-hexaen-7-yl]-2,3-dimethyl-cyclopropanecarboxamide]	8.47	8.74	9.30	7.82	9.22	8.46	9.70
CO[C@@H](C)c1ncc(N2CCN(C)CC2)cc1-c1c2c3cc(cc4c3n1CCC4)-c1csc(n1)C[C@H](NC(=O)[C@H]1C[C@@H]1c1ccccn1)C(=O)N1CCC[C@H](N1)C(=O)OCC(C)(C)C2 (atropisomer, axis not shown; (M)) [Example 30, (1S,2S)-N-[(7S,13S)-(20M)-20-[2-[(1S)-1-methoxyethyl]-5-(4-methylpiperazin-1-yl)-3-pyridyl]-17,17-dimethyl-8,14-dioxo-15-oxa-4-thia-9,21,30,31-tetrazahexacyclo[23.3.1.1^2,5.1^9,13.0^19,27.0^21,26]hentriaconta-1 (28),2,5 (31),19,25 (29),26-hexaen-7-yl]-2-(2-pyridyl)cyclopropanecarboxamide]	7.63	8.31	8.89	7.76	8.89	8.14	> 9.22
